Here are results for twelve compounds from patent US20240116985A1, “STAPLED PEPTIDES AND METHODS THEREOF” (priority 2020, published 2024).

≈ marks a conversion by molar mass, not a printed value. Where two headings read alike, the source gives them in different places.

For orientation: IC50 means the concentration that inhibits the measured activity by half. As usually defined, the Solubility is the dissolved amount per volume that the medium holds. Higher therefore signals a readily soluble substance.

The target of data set [1] is T1, full-length beta-Catenin (Uniprot ID P35222) (Homo sapiens, UniProt P35222).
T1 construct: 10 nM full-length beta-Catenin (Uniprot ID P35222)
T1 sequence (P35222 1-781): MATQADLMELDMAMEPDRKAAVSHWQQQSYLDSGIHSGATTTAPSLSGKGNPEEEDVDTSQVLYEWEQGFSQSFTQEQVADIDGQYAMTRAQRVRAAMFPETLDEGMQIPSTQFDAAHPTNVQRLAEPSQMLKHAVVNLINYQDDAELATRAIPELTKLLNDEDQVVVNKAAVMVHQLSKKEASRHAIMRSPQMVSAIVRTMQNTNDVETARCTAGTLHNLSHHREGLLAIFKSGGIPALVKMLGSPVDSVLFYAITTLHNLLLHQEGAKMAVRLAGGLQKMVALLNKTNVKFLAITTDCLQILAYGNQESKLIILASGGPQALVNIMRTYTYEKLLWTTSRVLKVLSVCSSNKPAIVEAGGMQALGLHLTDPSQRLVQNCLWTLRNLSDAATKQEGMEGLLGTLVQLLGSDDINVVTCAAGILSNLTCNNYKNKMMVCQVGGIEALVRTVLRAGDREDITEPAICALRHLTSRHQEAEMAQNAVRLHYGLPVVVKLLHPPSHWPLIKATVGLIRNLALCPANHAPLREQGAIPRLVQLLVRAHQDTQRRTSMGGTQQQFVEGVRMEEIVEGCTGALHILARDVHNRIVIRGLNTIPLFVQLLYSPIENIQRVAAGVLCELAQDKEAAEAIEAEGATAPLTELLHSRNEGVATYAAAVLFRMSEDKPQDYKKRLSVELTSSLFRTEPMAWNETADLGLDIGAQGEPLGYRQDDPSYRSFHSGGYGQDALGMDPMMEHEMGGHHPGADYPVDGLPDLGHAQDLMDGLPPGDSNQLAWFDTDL
The data set can be described thus: Fluorescence polarization IC50 (beta-catenin / 5FAM-TCF4 10-53 competition). Format: binding. To be noted: fluorescence polarization; read-out: beta-Catenin FP IC50. On the technique in general: Polarisation of emitted light reports the rotation of a fluorescent probe.

A short description of the next data set: Solubility in PBS. The format is physicochemical. In a few lines: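 Read-out is the HPLC peak area of the supernatant from ultracentrifuged PBS solution, scaled against a 50 μM peptide DMSO injection; value reported as [(PBS area)/(DMSO area)]*50 uM.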
Data set [2] addresses T2, beta-catenin/TCF4 engagement (Homo sapiens, UniProt P35222).
T2 construct: expressed in transfected cells; host or cells: HEK293
T2 sequence (P35222 1-781): T1 sequence (P35222 1-781)
The data set can be described thus: Nano-BRET target engagement assay (B-cat-Halo & TCF4-Luc in HEK293 cells). The format is cell-based. Conditions: absolute IC50; read-out: NanoBRET Abs IC50.

With `CC(=O)N1CCC[C@]12CC=CCCCC1(CCCC=CCCCOC(=O)N3CC[C@@](C(=O)N[C@@H](Cc4ccccc4Cl)C(=O)N[C@@H](Cc4csc5ccccc45)C(=O)N[C@@H](CCO)C(N)=O)(C3)NC(=O)[C@H](CO)NC(=O)[C@H](Cc3ccccc3)NC(=O)[C@H](C)NC(=O)[C@H](C)NC(=O)[C@H](CC(=O)O)NC(=O)[C@H](CC(=O)O)NC1=O)NC(=O)[C@H](Cc1ccccc1)NC(=O)[C@H](CC(=O)O)NC2=O` (stereo partly drawn) [I-1143, Ac-PL3-Asp-Phe-B5-Asp-Asp-Ala-Ala-Phe-Ser-PyrS2-2C1F-BztA-Hse-NH2], the IC50 in data set [1] stood at 12 nM; in data set [2], 33100 nM. This compound also registered a Solubility in the data set “Solubility in PBS” (Solubility (uM)) of 44 µM (≈ 84.2 µg/mL).

On to `CC(=O)N1CCC[C@]12CC=CCCCC1(CCCC=CCCCOC(=O)N3CC[C@@](C(=O)N[C@@H](Cc4ccccc4Cl)C(=O)N[C@@H](Cc4csc5ccccc45)C(=O)N[C@H](C(N)=O)[C@@H](C)O)(C3)NC(=O)[C@H](CC(C)C)NC(=O)[C@H](Cc3ccccc3)NC(=O)[C@H](C)NC(=O)[C@H](C)NC(=O)[C@H](CC(=O)O)NC(=O)[C@H](CC(=O)O)NC1=O)NC(=O)[C@H](Cc1ccccc1)NC(=O)[C@H](CC(=O)O)NC2=O` (stereo partly drawn) [I-1145, Ac-PL3-Asp-Phe-B5-Asp-Asp-Ala-Ala-Phe-Leu-PyrS2-2C1F-BztA-Thr-NH2], for which the values for the IC50 in data set [1] and in data set [2] were 18 nM and 30600 nM, respectively. Further, the “Solubility” value in “Solubility in PBS” is 10 µM (≈ 19.4 µg/mL).

In the case of `CC(=O)N1CCC[C@]12CC=CCCCC1(CCCC=CCCCOC(=O)N3CC[C@@](C(=O)N[C@@H](Cc4ccccc4Cl)C(=O)N[C@@H](Cc4csc5ccccc45)C(=O)N[C@@H](C(N)=O)[C@H](C)O)(C3)NC(=O)[C@H](CC(C)C)NC(=O)[C@H](Cc3ccccc3)NC(=O)[C@H](C)NC(=O)[C@H](C)NC(=O)[C@H](CC(=O)O)NC(=O)[C@H](CC(=O)O)NC1=O)NC(=O)[C@H](Cc1ccccc1)NC(=O)[C@H](CC(=O)O)NC2=O` (stereo partly drawn) [I-1146, Ac-PL3-Asp-Phe-B5-Asp-Asp-Ala-Ala-Phe-Leu-PyrS2-2C1F-BztA-dThr-NH2], the IC50 was 33 nM in data set [1] and > 20000 nM in data set [2]. For the same compound, in the data set “Solubility in PBS” (Solubility (uM)), the Solubility was 18 µM (≈ 34.9 µg/mL).

As to `CC(=O)N1CCC[C@]12CC=CCCCC1(CCCC=CCCCOC(=O)N3CC[C@@](C(=O)N[C@@H](Cc4ccccc4Cl)C(=O)N[C@@H](Cc4csc5ccccc45)C(=O)N[C@@H](CCC(N)=O)C(N)=O)(C3)NC(=O)[C@H](CO)NC(=O)[C@H](Cc3ccccc3)NC(=O)[C@H](C)NC(=O)[C@H](CC(C)C)NC(=O)[C@H](CC(=O)O)NC(=O)[C@H](CC(=O)O)NC1=O)NC(=O)[C@H](CC1CCCCC1)NC(=O)[C@H](CC(=O)O)NC2=O` (stereo partly drawn) [I-1147, Ac-PL3-Asp-Cha-B5-Asp-Asp-Leu-Ala-Phe-Ser-PyrS2-2C1F-BztA-Gln-NH2], the values for the IC50 in data set [1] and in data set [2] were 10 nM and 21100 nM, respectively. For the same compound, the Solubility in “Solubility in PBS” (Solubility (uM)) worked out at 23 µM (≈ 45.7 µg/mL).

As for `CC(=O)N1CCC[C@]12CC=CCCCC1(CCCC=CCCCOC(=O)N3CC[C@@](C(=O)N[C@@H](Cc4ccccc4Cl)C(=O)N[C@@H](Cc4csc5ccccc45)C(=O)N[C@@H](CCC(N)=O)C(N)=O)(C3)NC(=O)[C@H](CO)NC(=O)[C@H](Cc3ccccc3)NC(=O)[C@H](CC(C)C)NC(=O)[C@H](C)NC(=O)[C@H](CC(=O)O)NC(=O)[C@H](CC(=O)O)NC1=O)NC(=O)[C@H](CC1CCCCC1)NC(=O)[C@H](CC(=O)O)NC2=O` (stereo partly drawn) [I-1148, Ac-PL3-Asp-Cha-B5-Asp-Asp-Ala-Leu-Phe-Ser-PyrS2-2C1F-BztA-Gln-NH2], the values for the IC50 in data set [1] and in data set [2] were 50 nM and 21500 nM, respectively. In addition, the “Solubility” value in the data set “Solubility in PBS” was found to be 10 µM (≈ 19.9 µg/mL).

For `CC(=O)N1CCC[C@]12CC=CCCCC1(CCCC=CCCCOC(=O)N3CC[C@@](C(=O)N[C@@H](Cc4ccccc4Cl)C(=O)N[C@@H](Cc4csc5ccccc45)C(=O)N[C@@H](CO)C(N)=O)(C3)NC(=O)[C@H]([C@@H](C)O)NC(=O)[C@H](Cc3ccccc3)NC(=O)[C@H](C)NC(=O)[C@H](CC(C)C)NC(=O)[C@H](CC(=O)O)NC(=O)[C@H](CC(=O)O)NC1=O)NC(=O)[C@H](CC1CCCCC1)NC(=O)[C@H](CC(=O)O)NC2=O` (stereo partly drawn) [I-1150, Ac-PL3-Asp-Cha-B5-Asp-Asp-Leu-Ala-Phe-Thr-PyrS2-2C1F-BztA-Ser-NH2], the IC50 in data set [1] came to 12 nM; in data set [2], 21400 nM. In the data set “Solubility in PBS” (Solubility (uM)), this compound registered a Solubility of 18 µM (≈ 35.3 µg/mL).

For the compound `CC(=O)N1CCC[C@]12CC=CCCCC1(CCCC=CCCCOC(=O)N3CC[C@@](C(=O)N[C@@H](Cc4ccccc4Cl)C(=O)N[C@@H](Cc4csc5ccccc45)C(=O)N[C@@H](CO)C(N)=O)(C3)NC(=O)[C@H]([C@@H](C)O)NC(=O)[C@H](Cc3ccccc3)NC(=O)[C@H](CC(C)C)NC(=O)[C@H](C)NC(=O)[C@H](CC(=O)O)NC(=O)[C@H](CC(=O)O)NC1=O)NC(=O)[C@H](CC1CCCCC1)NC(=O)[C@H](CC(=O)O)NC2=O` (stereo partly drawn) [I-1151, Ac-PL3-Asp-Cha-B5-Asp-Asp-Ala-Leu-Phe-Thr-PyrS2-2C1F-BztA-Ser-NH2], the IC50 in data set [1] was 30 nM; in data set [2] it was 25300 nM. Besides, in “Solubility in PBS”, the “Solubility” value worked out at 10 µM (≈ 19.6 µg/mL).

`CC(=O)N1CCC[C@]12CC=CCCCC1(CCCC=CCCCOC(=O)N3CC[C@@](C(=O)N[C@@H](Cc4ccccc4Cl)C(=O)N[C@@H](Cc4csc5ccccc45)C(=O)N[C@@H](CO)C(N)=O)(C3)NC(=O)[C@H]([C@@H](C)O)NC(=O)[C@H](Cc3ccccc3)NC(=O)[C@H](CC(C)C)NC(=O)[C@H](CC(C)C)NC(=O)[C@H](CC(=O)O)NC(=O)[C@H](CC(=O)O)NC1=O)NC(=O)[C@H](CC1CCCCC1)NC(=O)[C@H](CC(=O)O)NC2=O` (stereo partly drawn) [I-1152, Ac-PL3-Asp-Cha-B5-Asp-Asp-Leu-Leu-Phe-Thr-PyrS2-2C1F-BztA-Ser-NH2]: the IC50 in data set [1] was 65 nM; in data set [2] it was 14200 nM. In “Solubility in PBS”, the “Solubility” value turned out to be 10 µM (≈ 20 µg/mL).

As to `CC(=O)N1CCC[C@]12CC=CCCCC1(CCCC=CCCCOC(=O)N3CC[C@@](C(=O)N[C@@H](Cc4ccccc4Cl)C(=O)N[C@@H](Cc4csc5ccccc45)C(=O)N[C@@H](CO)C(N)=O)(C3)NC(=O)[C@H]([C@@H](C)O)NC(=O)[C@H](Cc3ccccc3)NC(=O)[C@H](CC(C)C)NC(=O)[C@H](C)NC(=O)[C@H](CC(=O)O)NC(=O)[C@H](CC(=O)O)NC1=O)NC(=O)[C@H](Cc1ccccc1)NC(=O)[C@H](CC(=O)O)NC2=O` (stereo partly drawn) [I-1157, Ac-PL3-Asp-Phe-B5-Asp-Asp-Ala-Leu-Phe-Thr-PyrS2-2C1F-BztA-Ser-NH2], the IC50 in data set [1] was 36 nM; in data set [2], > 20000 nM. Besides, in “Solubility in PBS” (Solubility (uM)), the concentration in solution (Solubility) was 15 µM (≈ 29.3 µg/mL).

For the compound `CC(=O)N1CCC[C@]12CC=CCCCC1(CCCC=CCCCOC(=O)N3CC[C@@](C(=O)N[C@@H](Cc4ccsc4)C(=O)N[C@@H](Cc4csc5ccccc45)C(=O)N[C@@H](CCC(N)=O)C(N)=O)(C3)NC(=O)[C@H]([C@@H](C)O)NC(=O)[C@H](Cc3ccccc3)NC(=O)[C@H](C)NC(=O)[C@H](C)NC(=O)[C@H]([C@@H](C)O)NC(=O)[C@H](CC(=O)O)NC1=O)NC(=O)[C@H](CC(C)(C)C)NC(=O)[C@H](CC(=O)O)NC2=O` (stereo partly drawn) [I-1166, Ac-PL3-Asp-Npg-B5-Asp-Thr-Ala-Ala-Phe-Thr-PyrS2-3Thi-BztA-Gln-NH2], the IC50 in data set [1] is 14 nM; in data set [2] it was 14600 nM. The Solubility in the data set “Solubility in PBS” (Solubility (uM)) is 14 µM (≈ 26.5 µg/mL).

Take `CC(=O)N1CCC[C@]12CC=CCCCC1(CCCC=CCCCOC(=O)N3CC[C@@](C(=O)N[C@@H](Cc4ccsc4)C(=O)N[C@@H](Cc4csc5ccccc45)C(=O)N[C@@H](CCC(N)=O)C(N)=O)(C3)NC(=O)[C@H](CC(C)C)NC(=O)[C@H](Cc3ccccc3)NC(=O)[C@H](C)NC(=O)[C@H](C)NC(=O)[C@H]([C@@H](C)O)NC(=O)[C@H](CC(=O)O)NC1=O)NC(=O)[C@H](CC(C)(C)C)NC(=O)[C@H](CC(=O)O)NC2=O` (stereo partly drawn) [I-1167, Ac-PL3-Asp-Npg-B5-Asp-Thr-Ala-Ala-Phe-Leu-PyrS2-3Thi-BztA-Gln-NH2]: the IC50 in data set [1] turned out to be 34 nM; in data set [2] it was 11700 nM. Also, the “Solubility” value in “Solubility in PBS” came out at 10 µM (≈ 19 µg/mL).

`CC(=O)N1CCC[C@]12CC=CCCCC1(CCCC=CCCCOC(=O)N3CC[C@@](C(=O)N[C@@H](Cc4ccccc4Cl)C(=O)N[C@@H](Cc4csc5ccccc45)C(=O)N[C@@H](CCC(N)=O)C(N)=O)(C3)NC(=O)[C@H]([C@@H](C)O)NC(=O)[C@H](Cc3ccccc3)NC(=O)[C@H](C)NC(=O)[C@H](C)NC(=O)[C@H]([C@@H](C)O)NC(=O)[C@H](CC(=O)O)NC1=O)NC(=O)[C@H](CC(C)(C)C)NC(=O)[C@H](CC(=O)O)NC2=O` (stereo partly drawn) [I-1168, Ac-PL3-Asp-Npg-B5-Asp-Thr-Ala-Ala-Phe-Thr-PyrS2-2C1F-BztA-Gln-NH2]: the values for the IC50 in data set [1] and in data set [2] were 25 nM and 31400 nM, respectively. For the same compound, the “Solubility” value in “Solubility in PBS” came out at 10 µM (≈ 19.2 µg/mL).
